Test results published in patent US10807932B2, “Benzosuberene analogues and related compounds with activity as anticancer agents” (Baylor University, priority 2018, dated 2020).
Values joined by “and” are separate entries in the source; they are usually repeats but may differ in a detail not shown here. Equal entries are not always repeated. “Also recorded” adds a separate entry of the source.

How the values were obtained:
[1] = test system: DU-145 (prostate) cancer cell line; test: Sulforhodamine B (SRB) growth inhibition assay, DU-145; type: cell-based, human; conditions: 48 h treatment
Text: (§1) Cell Lines and Sulforhodamine B (SRB) Assay.
(§2) The sulforhodamine B (SRB) assay was used to assess growth inhibition of human cancer cells, as previously described. DU-145, SK-OV-3, and NCI-H460 cancer cell lines (obtained from ATCC) were maintained in T75 flasks (Corning) using high glucose DMEM supplemented with 10% fetal bovine serum (Gibco)/1% gentamicin sulfate for a maximum of 15 passages. For these experiments, cells were trypsinized, counted, and plated at 7000-8000 cells/well into 96-well plates (Corning) and incubated for 24 h at 37° C. in a humidified incubator in a 5% CO2 atmosphere. Compounds to be tested were dissolved in DMSO to generate a 10 mg/mL stock solution, and serial dilutions added in media to the plates. Doxorubicin (Sigma-Aldrich) and paclitaxel (Tokyo Chemical) were used as positive controls. After a 48 h treatment, the cells were fixed with trichloroacetic acid (10% final concentration), washed, dried, stained with SRB dye, washed to remove excess dye, and dried. SRB dye was solubilized, and absorbances were measured at wavelength 540 nm and normalized to values at wavelength 630 nm using an automated Biotek plate reader.

[2] = test system: NCI-H460 (lung) cancer cell line; test: Sulforhodamine B (SRB) growth inhibition assay, NCI-H460; type: cell-based, human; conditions: 48 h treatment
Text: as §1, §2

[3] = test system: SK-OV-3 (ovarian) cancer cell line; test: Sulforhodamine B (SRB) growth inhibition assay, SK-OV-3; type: cell-based, human; conditions: 48 h treatment
Text: as §1, §2

[4] = target: T1, purified bovine brain tubulin (Bos taurus, UniProt P81947+Q6B856); test: Inhibition of tubulin polymerization (turbidimetric, cell-free); type: biochemical; conditions: for IC50: 10 μM tubulin, extent of polymerization after 20 min at 30° C., read-out: Inhibition of tubulin polymerization IC50 (μM) ± SD; for inhibition of tubulin polymerization (in words): cell-free assay
T1 construct: purified bovine brain tubulin; from tissue; host or cells: bovine brain
T1 sequence (Q6B856 whole entry): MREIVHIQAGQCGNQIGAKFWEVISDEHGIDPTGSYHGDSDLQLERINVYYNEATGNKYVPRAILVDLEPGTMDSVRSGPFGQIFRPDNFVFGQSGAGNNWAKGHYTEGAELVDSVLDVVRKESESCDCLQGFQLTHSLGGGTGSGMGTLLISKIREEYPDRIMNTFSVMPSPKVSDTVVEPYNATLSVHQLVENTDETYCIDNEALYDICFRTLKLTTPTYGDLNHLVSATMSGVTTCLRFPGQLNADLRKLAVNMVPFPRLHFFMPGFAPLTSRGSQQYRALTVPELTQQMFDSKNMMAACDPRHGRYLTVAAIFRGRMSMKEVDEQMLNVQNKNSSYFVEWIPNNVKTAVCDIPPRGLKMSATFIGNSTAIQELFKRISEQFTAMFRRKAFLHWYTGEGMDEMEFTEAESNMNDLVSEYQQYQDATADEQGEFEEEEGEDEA
T1 sequence (P81947 whole entry): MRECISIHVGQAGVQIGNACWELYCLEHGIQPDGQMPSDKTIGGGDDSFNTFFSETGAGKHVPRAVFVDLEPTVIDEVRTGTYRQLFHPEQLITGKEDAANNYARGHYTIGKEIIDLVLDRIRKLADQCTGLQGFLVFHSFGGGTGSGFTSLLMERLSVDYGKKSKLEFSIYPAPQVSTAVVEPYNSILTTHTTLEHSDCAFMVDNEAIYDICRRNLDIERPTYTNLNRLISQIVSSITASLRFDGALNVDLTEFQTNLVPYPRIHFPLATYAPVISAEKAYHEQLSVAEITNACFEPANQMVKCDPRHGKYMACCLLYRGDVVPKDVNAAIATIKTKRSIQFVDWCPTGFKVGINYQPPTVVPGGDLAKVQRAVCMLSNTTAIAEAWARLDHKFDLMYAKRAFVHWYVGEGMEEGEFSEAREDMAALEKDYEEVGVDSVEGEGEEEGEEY
Method: Inhibition of Tubulin Polymerization.
Tubulin polymerization was evaluated in 0.25 mL reaction mixtures (final volume) containing 1 mg/mL (10 μM) purified bovine brain tubulin, 0.8 M monosodium glutamate (pH 6.6), 4% (v/v) dimethyl sulfoxide, 0.4 mM GTP, and different compound concentrations. All components except GTP were preincubated for 15 min at 30° C. in 0.24 mL. The assay mixtures were cooled to 0° C., and 10 μL of 0.01 M GTP was added to each sample. Reaction mixtures were transferred to cuvettes held at 0° C. in Beckman DU-7400 and DU-7500 spectrophotometers equipped with electronic temperature controllers. The temperature was increased to 30° C., over about 30 s, and polymerization was followed turbidimetrically at 350 nm for 20 min.

[5] = test system: PC3-DAB2IP-luc human prostate tumor xenograft; test: In vivo vascular disruption by dynamic bioluminescence imaging (BLI); design: species or system Male Copenhagen rats; conditions: for vascular response by BLI light emission (in words): phosphate
Text: In Vivo Vascular Disruption.
The human prostate cancer cell line (PC3) was modified by knock down of a tumor suppressor protein PC3-DAB2IP and further modified by transfection with a firefly luciferase reporter, as described in detail previously. Male Copenhagen rats (originally from Charles River and bred at UT Southwestern) were inoculated subcutaneously with 5×10^5 PC3-DAB2IP-luc cells mixed with 30% Matrigel® in the right thigh. These rats were approximately 6 weeks old and weighed between 100-120 g on date of implantation. Tumors were allowed to grow to a diameter of at least 1 cm before treatment commenced. Three rats were treated with VDA prodrug 89 (25 mg/mL in saline) administered IP. Rat 1 received 10 mg/kg followed by 40 mg/kg 24 h later and CA4P (30 mg/kg at 20 mg/mL in saline) was administered IP as a control 4 days later. Rat 2 received a single dose of 40 mg/kg of VDA prodrug 89, and rat 3 received 80 mg/kg of 89. Bioluminescence imaging (BLI) was performed before treatment (baseline), and at 4 and 24 h after treatment using an IVIS Spectrum® (Perkin-Elmer). Briefly, anesthetized rats (breathing oxygen with 3% isoflurane, Henry Schein Inc.) were injected subcutaneously in the foreback neck region with 120 mg/kg D-luciferin sodium salt (Gold Biotechnology, St. Louis, Mo.) and imaged over a time course of about 30 min. Fresh luciferin was administered at each time point. The resulting light intensity time curves were analyzed using Living Image® Software and light emission measured for a region of interest encompassing the tumor. All animal procedures were carried out in accordance with the Guide for the Care and Use of Laboratory Animals as adopted and promulgated by the U.S. National Institutes of Health as well as the Institutional Animal Care and Use Committee approved protocols (APN 2017-102168) at the University of Texas Southwestern Medical Center.
Ultimately, VDAs will be used in vivo, and thus it is crucial to understand both efficacy of vascular disruption and potential off target toxicity in vivo. As a preliminary investigation, the extent of vascular damage was assessed in a human prostate tumor line in rats treated with the water-soluble prodrug salt 89 compared to CA4P as control. Many imaging methods have been developed to assess vascular disruption non-invasively in vivo. Dynamic bioluminescence imaging (BLI) was favored for initial validation of VDA activity since it provides a fast, non-invasive and easy method and allows comparison of repeat or sequential investigations. BLI does require the use of cells transfected to express luciferase (luc), but these are commonly available and we have used this approach extensively as have others. The human prostate cancer PC3 line was used, in which the tumor suppressor protein DAB2IP had been knocked down and luciferase introduced. BLI requires administration of luciferin substrate, which readily crosses membranes and is carried throughout the vasculature. The measurement of light emission dynamics is related to vascular delivery of the luciferin substrate, and thus it provides a measure of vascular patency. Disruption of tumor vasculature blocks delivery of the substrate and consequently results in a quantifiable decrease in bioluminescent signal.

[6] = 30 mg/kg, rats, shown previously; cited from earlier work
tubulin = test: Colchicine binding assay (inhibition of [3H]colchicine binding to tubulin); conditions: 1.0 μM tubulin, 5.0 μM [3H]colchicine
Method: Colchicine Binding Assay.
Inhibition of [^3H]colchicine binding to tubulin was measured in 0.1 mL reaction mixtures, each containing 1.0 μM tubulin, 5.0 μM [^3H]colchicine (Perkin-Elmer), 5% (v/v) dimethyl sulfoxide, […], and components that stabilize the colchicine binding activity of tubulin (1.0 M monosodium glutamate [adjusted to pH 6.6 with HCl in a 2.0 M stock solution], 0.5 mg/mL bovine serum albumin, 0.1 M glucose-1-phosphate, 1.0 mM MgCl2, and 1.0 mM GTP). […] Reactions were stopped with 2.0 mL of ice-cold water, with the reaction mixtures being placed on ice. Each diluted sample was poured onto a stack of two DEAE-cellulose filters (GE Biomedical), followed by 3 successive 2 mL aliquots of ice-cold water. A reduced vacuum was used to remove excess water from the filters, which were washed three times with 2 mL water and placed into vials containing 5 mL of Biosafe II scintillation cocktail. Samples were counted 18 h later in a Beckman scintillation counter. Samples with inhibitors were compared to samples with no inhibitor, and percent inhibition was determined, correcting all values for the amount of radiolabel bound to the filters in the absence of tubulin.

Molecule `COc1ccc(/C=C\c2cc(OC)c(OC)c(OC)c2)cc1OP(=O)(O)O` [CA4P, combretastatin A-4 phosphate, reference compound] has a GI50 [1] of 3.23 nM, a GI50 [2] of 1.94 nM and a GI50 [3] of 1.19 nM. The IC50 [4] was > 40 µM, the “vascular response by BLI (in words)” value ([5]; 30 mg/kg IP, given 4 days after 89 to the same rat) was “very similar effect” and the “vascular shutdown (in words)” value [6] was “extensive vascular shutdown”.

`COc1cc(C2CCc3c(ccc(OC)c3OC)C(=O)C2)cc(OC)c1OC` (centres unmarked) [Compound 77, 1,2-Dimethoxy-7-(3,4,5-trimethoxyphenyl)-6,7,8,9-tetrahydro-5H-benzo[7]annulen-5-one] gave a GI50 ([1]; Homo sapiens, DU-145) of 4450 nM, a GI50 ([2]; Homo sapiens, NCI-H460) of 2000 nM and a GI50 ([3]; Homo sapiens, SK-OV-3) of 5770 nM. The IC50 [4] was > 20 µM, the “inhibition of tubulin polymerization (in words)” value [4] was “lack of activity” and the “% Inhibition of colchicine binding ± SD” value (tubulin; compound at 5 μM) was 0 (5 μM) %.

In the case of `COc1ccc2c(c1O)CC=CC=C2c1cc(OC)c(OC)c(OC)c1` [Compound 88, 3-Methoxy-9-(3,4,5-trimethoxyphenyl)-5H-benzo[7]annulen-4-ol], the GI50 ([1]; Homo sapiens, DU-145) is reported as 97.6 nM, the GI50 ([2]; Homo sapiens, NCI-H460) is reported as 58.1 nM and the GI50 ([3]; Homo sapiens, SK-OV-3) is reported as 6.9 nM. The IC50 [4] was 0.48 ± 0.08 µM, the “% Inhibition of colchicine binding ± SD” value (tubulin; compound at 0.5 μM) was 68 ± 1% and the “% Inhibition of colchicine binding ± SD” value (tubulin; compound at 5 μM) was 95 ± 0.8%.

Molecule `COc1cc(C2=CC=CCc3c2ccc(OC)c3OP(=O)([O-])[O-])cc(OC)c1OC.[Na+].[Na+]` [Compound 89, Sodium 3-methoxy-9-(3,4,5-trimethoxyphenyl)-5H-benzo[7]annulen-4-yl phosphate] has a GI50 ([1]; Homo sapiens, DU-145) of 23.9 nM, a GI50 ([2]; Homo sapiens, NCI-H460) of 29.1 nM and a GI50 ([3]; Homo sapiens, SK-OV-3) of 15.3 nM. The IC50 [4] was 16 ± 0.7 µM, the “inhibition of tubulin polymerization (in words)” value [4] was “inactive” and the “vascular response by BLI light emission (in words)” value ([5]; 10 mg/kg IP, rat) was “no vascular perturbation; also recorded: minimal change in light emission”. For the same molecule, the “vascular response by BLI light emission (in words)” value ([5]; 40 mg/kg IP, 4 h, rat) was “substantial vascular shutdown; also recorded: substantially diminished light emission; also recorded: revealed vascular disruption”, the “recovery of BLI signal (in words)” value ([5]; 40 mg/kg IP, 24 h, rat) was “substantial recovery by 24 h” and the “appearance of the rats” value ([5]; 40 mg/kg IP, at 48 h) was “appeared healthy”. The tolerability ([5]; 80 mg/kg IP, rat) was “well tolerated”, the “vascular disruption (in words)” value ([5]; 80 mg/kg IP, rat) was “did not show additional vascular disruption” and the “% Inhibition of colchicine binding ± SD” value (tubulin; compound at 5 μM) was 45 ± 2 (5 μM) %.

For `COc1ccc2c(c1O)CCCC1=C2c2cc(OC)c(OC)c(OC)c2C1=O` [Compound 91, 4-Hydroxy-3,9,10,11-tetramethoxy-6,7-dihydrodibenzo[a,h]azulen-8(5H)-one], the GI50 ([1]; Homo sapiens, DU-145) was 32.1 nM, the GI50 ([2]; Homo sapiens, NCI-H460) was 105 nM and the GI50 ([3]; Homo sapiens, SK-OV-3) was 39.9 nM. For the same molecule, the IC50 [4] was 4.2 ± 0.2 µM and the “% Inhibition of colchicine binding ± SD” value (tubulin; compound at 5 μM) was 45 ± 4 (5 μM) %.

Work on `COc1ccc2c(c1O)CCCC=C2c1cc(OC)c(OC)c(OC)c1` [KGP18, 3-Methoxy-9-(3,4,5-trimethoxyphenyl)-6,7-dihydro-5H-benzo[7]annulen-4-ol, reference compound] yielded a GI50 ([1]; Homo sapiens, DU-145) of 0.0249 nM, a GI50 ([2]; Homo sapiens, NCI-H460) of 0.0418 nM and a GI50 ([3]; Homo sapiens, SK-OV-3) of 0.0543 nM. For the same molecule, the IC50 [4] was ~0.85 µM and 0.85 µM, the “% Inhibition of colchicine binding ± SD” value (tubulin; compound at 1 μM) was 73 ± 5% and the “% Inhibition of colchicine binding ± SD” value (tubulin; compound at 5 μM) was 95 ± 0.5%.
